The text below walks through data of patent US9283222B2 (priority 2006, dated 2016).

What is called Ki is a dissociation constant, usually derived from enzyme kinetics or from competition with a known ligand.

Chain of Recombinant Human Poly(ADP-Ribose) Polymerase (PARP), PARP-1 (P09874 whole entry): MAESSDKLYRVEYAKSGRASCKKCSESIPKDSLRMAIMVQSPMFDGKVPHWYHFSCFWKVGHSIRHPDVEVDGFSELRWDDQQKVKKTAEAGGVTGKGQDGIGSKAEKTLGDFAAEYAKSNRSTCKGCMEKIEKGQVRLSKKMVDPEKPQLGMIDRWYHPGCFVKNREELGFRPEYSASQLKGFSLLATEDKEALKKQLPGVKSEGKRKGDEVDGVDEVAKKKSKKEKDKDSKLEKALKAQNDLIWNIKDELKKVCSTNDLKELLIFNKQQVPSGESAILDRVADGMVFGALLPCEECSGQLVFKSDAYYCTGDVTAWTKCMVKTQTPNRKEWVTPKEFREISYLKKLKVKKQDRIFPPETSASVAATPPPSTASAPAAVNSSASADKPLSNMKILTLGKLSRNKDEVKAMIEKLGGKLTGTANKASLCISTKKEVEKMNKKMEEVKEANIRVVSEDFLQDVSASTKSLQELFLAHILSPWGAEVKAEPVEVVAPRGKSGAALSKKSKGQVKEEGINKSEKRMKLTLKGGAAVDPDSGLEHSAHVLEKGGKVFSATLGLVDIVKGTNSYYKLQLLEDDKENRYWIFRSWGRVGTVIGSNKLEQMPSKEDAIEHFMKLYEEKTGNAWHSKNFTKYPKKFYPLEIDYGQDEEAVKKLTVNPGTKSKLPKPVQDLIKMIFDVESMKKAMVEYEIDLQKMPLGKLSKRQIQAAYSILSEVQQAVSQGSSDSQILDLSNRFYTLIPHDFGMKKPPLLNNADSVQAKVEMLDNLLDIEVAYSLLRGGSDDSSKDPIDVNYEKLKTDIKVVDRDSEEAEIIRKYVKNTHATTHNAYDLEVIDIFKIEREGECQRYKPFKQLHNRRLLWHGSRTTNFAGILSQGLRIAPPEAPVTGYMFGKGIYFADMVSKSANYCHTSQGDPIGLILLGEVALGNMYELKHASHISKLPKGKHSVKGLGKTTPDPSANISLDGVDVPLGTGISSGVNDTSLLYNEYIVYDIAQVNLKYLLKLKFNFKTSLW

The assay addresses Recombinant Human Poly(ADP-Ribose) Polymerase (PARP), PARP-1 (Homo sapiens (Human), UniProt P09874). The conditions noted are these: read-out: PARP-1 (Ki); Table 1; text calls the values EC50s.
Experimental: Nicotinamide[2,5′,8-3H]adenine dinucleotide and strepavidin SPA beads were purchased from Amersham Biosiences. […] NAD^+, histone, aminobenzamide, 3-amino benzamide and Calf Thymus DNA (dcDNA) were purchased from Sigma. Stem loop oligonucleotide containing MCAT sequence was obtained from Qiagen. The oligos were dissolved to 1 mM in annealing buffer containing 10 mM Tris HCl pH 7.5, 1 mM EDTA, and 50 mM NaCl, incubated for 5 minutes at 95° C., and annealed at 45° C. for 45 minutes. […] Biotinylated histone H1 was prepared by treating the protein with Sulfo-NHS-LC-Biotin from Pierce. The biotinylation reaction was conducted by slowly and intermittently adding 3 equivalents of 10 mM Sulfo-NHS-LC-Biotin to 100 μM Histone H1 in phosphate-buffered saline, pH 7.5, at 4° C. with gentle vortexing over 1 minute followed by subsequent 4° C. incubation for 1 hour. Streptavidin coated (FlashPlate Plus) microplates were purchased from Perkin Elmer.
PARP1 assay was conducted in PARP assay buffer containing 50 mM Tris pH 8.0, 1 mM DTT, 4 mM MgCl2. […] Auto reactions utilizing SPA bead-based detection were carried out in 100 μL volumes in white 96 well plates.
Turning to `O=C(c1cncnc1)N1CCN(C(=O)c2cc(Cc3n[nH]c(=O)c4c3CCCC4)ccc2F)CC1` [Example 733, 4-(4-fluoro-3-{[4-(pyrimidin-5-ylcarbonyl)piperazin-1-yl]carbonyl}benzyl)-5,6,7,8-tetrahydrophthalazin-1(2H)-one], the Ki was 1.7 nM.
The same measure for `O=C(NC1CCN(C(=O)c2cn[nH]c2)CC1)c1cc(Cc2n[nH]c(=O)c3c2NCCC3)ccc1F` [Example 734, 2-fluoro-5-[(5-oxo-1,2,3,4,5,6-hexahydropyrido[2,3-d]pyridazin-8-yl)methyl]-N-[1-(1H-pyrazol-4-ylcarbonyl)piperidin-4-yl]benzamide]: 9 nM.
The same measure for `O=C(c1ccc(O)nc1)N1CCN(C(=O)c2cc(Cc3n[nH]c(=O)c4c3CCCC4)ccc2F)CC1` [Example 735, 4-[4-fluoro-3-({4-[(6-hydroxypyridin-3-yl)carbonyl]piperazin-1-yl}carbonyl)benzyl]-5,6,7,8-tetrahydrophthalazin-1(2H)-one]: 1.5 nM; for `O=C(NC1CCN(C(=O)c2ccccn2)CC1)c1cc(Cc2n[nH]c(=O)c3c2NCCC3)ccc1F` [Example 736, 2-fluoro-5-[(5-oxo-1,2,3,4,5,6-hexahydropyrido[2,3-d]pyridazin-8-yl)methyl]-N-[1-(pyridin-2-ylcarbonyl)piperidin-4-yl]benzamide]: 4 nM.
The same measure for `O=C(NC1CCN(C(=O)c2ccncc2)CC1)c1cc(Cc2n[nH]c(=O)c3c2NCCC3)ccc1F` [Example 738, 2-fluoro-N-(1-isonicotinoylpiperidin-4-yl)-5-[(5-oxo-1,2,3,4,5,6-hexahydropyrido[2,3-d]pyridazin-8-yl)methyl]benzamide]: 14 nM.
With `O=C(c1ccc2ccccc2n1)N1CCN(C(=O)c2cc(Cc3n[nH]c(=O)c4c3CCCC4)ccc2F)CC1` [Example 739, 4-(4-fluoro-3-{[4-(quinolin-2-ylcarbonyl)piperazin-1-yl]carbonyl}benzyl)-5,6,7,8-tetrahydrophthalazin-1(2H)-one], the Ki was found to be 1.3 nM.
With `N[C@H]1CCCC[C@@H]1NC(=O)c1cc(Cc2n[nH]c(=O)c3c2NCCC3)ccc1F` [Example 740, N-[(1S,2S)-2-aminocyclohexyl]-2-fluoro-5-[(5-oxo-1,2,3,4,5,6-hexahydropyrido[2,3-d]pyridazin-8-yl)methyl]benzamide] the figure was 52 nM.
Turning to `CCN(CCNC(=O)c1ccccc1)C(=O)c1cc(Cc2n[nH]c(=O)c3c2CCCC3)ccc1F` [Example 742, N-[2-(benzoylamino)ethyl]-N-ethyl-2-fluoro-5-[(4-oxo-3,4,5,6,7,8-hexahydrophthalazin-1-yl)methyl]benzamide], the Ki came to 1.8 nM.
With `CCN(CCNC(=O)N1CCCC1)C(=O)c1cc(Cc2n[nH]c(=O)c3c2CCCC3)ccc1F` [Example 743, N-[2-(ethyl{2-fluoro-5-[(4-oxo-3,4,5,6,7,8-hexahydrophthalazin-1-yl)methyl]benzoyl}amino)ethyl]pyrrolidine-1-carboxamide] the figure was 2.7 nM.
The same measure for `O=C(NC1CCN(c2ccccn2)CC1)c1cc(Cc2n[nH]c(=O)c3c2NCCC3)ccc1F` [Example 745, 2-fluoro-5-[(5-oxo-1,2,3,4,5,6-hexahydropyrido[2,3-d]pyridazin-8-yl)methyl]-N-(1-pyridin-2-ylpiperidin-4-yl)benzamide]: 8 nM; for `O=C(NC1CCN(C(=O)c2cc(Cc3n[nH]c(=O)c4c3NCCC4)ccc2F)CC1)c1cccnc1` [Example 747, N-(1-{2-fluoro-5-[(5-oxo-1,2,3,4,5,6-hexahydropyrido[2,3-d]pyridazin-8-yl)methyl]benzoyl}piperidin-4-yl)nicotinamide]: 1.5 nM; for `O=C(NC1CCN(C(=O)c2cc(Cc3n[nH]c(=O)c4c3NCCC4)ccc2F)CC1)c1ccncc1` [Example 748, N-(1-{2-fluoro-5-[(5-oxo-1,2,3,4,5,6-hexahydropyrido[2,3-d]pyridazin-8-yl)methyl]benzoyl}piperidin-4-yl)isonicotinamide]: 1 nM.
